This passage reports inhibition and IC50 results from patent publication US7951829B2, “Benzimidazole modulators of VR1” (Janssen Pharmaceutica NV, priority 2006, dated 2011).

SMILES strings stand for the structures.

The target in the assay is T1, hVR1 (Homo sapiens, UniProt Q8NER1).
T1 construct: expressed in transfected cells; host or cells: HEK293
In words: Human VR1 (hVR1) Functional Assay (FLIPR intracellular calcium, capsaicin challenge). Type of assay: cell-based. The note with it: capsaicin 0.030 μM, HEK293 cells expressing hVR1; for inhibition at 1 µM: test concentration 1 μM. For orientation: Calcium assays in cells follow changes in intracellular calcium, usually with a dye or a luminescent sensor.

T1 sequence (Q8NER1 whole entry): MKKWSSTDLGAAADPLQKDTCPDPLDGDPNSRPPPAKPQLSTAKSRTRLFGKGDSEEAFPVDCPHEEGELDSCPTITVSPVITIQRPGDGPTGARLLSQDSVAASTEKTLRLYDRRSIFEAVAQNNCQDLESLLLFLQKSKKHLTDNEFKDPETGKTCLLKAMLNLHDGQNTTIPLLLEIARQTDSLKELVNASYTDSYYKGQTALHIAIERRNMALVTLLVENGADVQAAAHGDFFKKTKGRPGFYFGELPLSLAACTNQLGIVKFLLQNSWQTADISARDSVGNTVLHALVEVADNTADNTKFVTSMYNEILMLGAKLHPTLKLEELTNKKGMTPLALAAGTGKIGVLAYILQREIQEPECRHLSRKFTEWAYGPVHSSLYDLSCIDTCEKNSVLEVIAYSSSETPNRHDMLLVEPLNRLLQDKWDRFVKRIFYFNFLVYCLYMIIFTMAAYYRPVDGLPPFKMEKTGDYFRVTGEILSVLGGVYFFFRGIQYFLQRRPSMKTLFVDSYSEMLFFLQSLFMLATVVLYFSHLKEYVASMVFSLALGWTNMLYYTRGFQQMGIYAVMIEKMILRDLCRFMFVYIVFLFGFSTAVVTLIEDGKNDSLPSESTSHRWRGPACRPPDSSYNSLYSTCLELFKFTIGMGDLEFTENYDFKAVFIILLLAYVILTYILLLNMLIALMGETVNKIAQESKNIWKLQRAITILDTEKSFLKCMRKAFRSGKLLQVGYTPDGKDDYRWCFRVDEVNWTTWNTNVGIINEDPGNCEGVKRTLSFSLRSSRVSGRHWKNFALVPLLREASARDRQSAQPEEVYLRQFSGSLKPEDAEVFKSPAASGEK

Usually inhibition stands for the relative decrease from the control value, in per cent. Take `CC(C)(C)NS(=O)(=O)c1ccccc1-c1ccc2[nH]c(/C=C/c3ccc(C(F)(F)F)cc3)nc2c1` [Cpd 309, (E)-N-tert-butyl-2-{2-[2-(4-trifluoromethyl-phenyl)-vinyl]-1H-benzimidazol-5-yl}-benzenesulfonamide]: the inhibition at 1 µM stood at 73%.
The term IC50 denotes the midpoint of a concentration-inhibition curve. On to `CC(C)(O)c1ccccc1-c1ccc2[nH]c(C#Cc3ccc(C(F)(F)F)cc3)nc2c1` [Cpd 492, 2-{2-[2-(4-trifluoromethyl-phenylethynyl)-1H-benzimidazol-5-yl]-phenyl}-propan-2-ol], for which the IC50 is 0.005 µM and the inhibition at 1 µM was determined as 99%.
The like results for `CS(=O)(=O)Nc1ccccc1-c1ccc2[nH]c(/C=C/c3ccc(Cl)cc3)nc2c1` [Cpd 77, (E)-N-(2-{2-[2-(4-chloro-phenyl)-vinyl]-1H-benzimidazol-5-yl}-phenyl)-methanesulfonamide] were, in that order, 0.076 µM and 100%.
The like results for `CC(C)(O)c1ccccc1-c1ccc2[nH]c(C3CC3c3ccc(Cl)cc3)nc2c1` (stereo not drawn) [Cpd 198, 2-(2-{2-[2-(4-chloro-phenyl)-cyclopropyl]-1H-benzimidazol-5-yl}-phenyl)-propan-2-ol] were, in that order, 0.01 µM and 95%.
The like results for `CC(C)(C)c1ccc(/C=C/c2nc3cc(-c4ccccc4C(C)(C)O)ccc3[nH]2)cc1` [Cpd 463, (E)-2-(2-{2-[2-(4-tert-butyl-phenyl)-vinyl]-1H-benzimidazol-5-yl}-phenyl)-propan-2-ol] were, in that order, 0.014 µM and 100%.
On to `CS(=O)(=O)c1ccccc1-c1ccc2[nH]c(C3CC3c3ccc(C(F)(F)F)cc3)nc2c1` (stereo not drawn) [Cpd 500, 5-(2-methanesulfonyl-phenyl)-2-[2-(4-trifluoromethyl-phenyl)-cyclopropyl]-1H-benzimidazole], for which the half-inhibitory concentration (IC50) came to 0.019 µM and the inhibition at 1 µM stood at 97%.
The like results for `CC(C)(O)c1ccccc1-c1ccc2[nH]c([C@H]3C[C@@H]3c3ccc(C(F)(F)F)cc3)nc2c1` [Cpd 503, 2-(2-{2-[(1S,2S)-2-(4-trifluoromethyl-phenyl)-cyclopropyl]-1H-benzimidazol-5-yl}-phenyl)-propan-2-ol] were, in that order, 0.01 µM and 93%.
The like results for `NC(=O)c1ccccc1-c1cc2nc(/C=C/c3ccc(C(F)(F)F)cc3)[nH]c2cc1F` [Cpd 63, (E)-2-{6-fluoro-2-[2-(4-trifluoromethyl-phenyl)-vinyl]-1H-benzimidazol-5-yl}-benzamide] were, in that order, 0.26 µM and 97%.
With `CS(=O)(=O)c1ccc(CCc2nc3cc(-c4ccccc4S(N)(=O)=O)ccc3[nH]2)cc1` [Cpd 145, 2-{2-[2-(4-methanesulfonyl-phenyl)-ethyl]-1H-benzimidazol-5-yl}-benzenesulfonamide], the inhibition at 1 µM worked out at 19%.
With `CS(=O)(=O)Nc1ccccc1-c1ccc2[nH]c(/C=C/c3ccc(OC(F)F)cc3)nc2c1` [Cpd 410, (E)-N-(2-{2-[2-(4-difluoromethoxy-phenyl)-vinyl]-1H-benzimidazol-5-yl}-phenyl)-methanesulfonamide], the IC50 came to 0.156 µM and the inhibition at 1 µM amounted to 91%.
On the same counts, the results for `NS(=O)(=O)c1ccccc1-c1ccc2[nH]c(CCc3ccc(F)c(F)c3F)nc2c1` [Cpd 384, 2-{2-[2-(2,3,4-trifluoro-phenyl)-ethyl]-1H-benzimidazol-5-yl}-benzenesulfonamide] are 0.007 µM and 98%.
For the compound `NS(=O)(=O)c1ccccc1-c1ccc2[nH]c([C@@H]3C[C@H]3c3ccc(C(F)(F)F)cc3)nc2c1` [Cpd 502, 2-{2-[(1R,2R)-2-(4-trifluoromethyl-phenyl)-cyclopropyl]-1H-benzimidazol-5-yl}-benzenesulfonamide], the half-maximal inhibitory concentration (IC50) amounted to 0.19 µM and the inhibition at 1 µM was found to be 82%.
On the same counts, the results for `COC(=O)Nc1ccccc1-c1ccc2[nH]c(/C=C/c3ccc(C(F)(F)F)cc3)nc2c1` [Cpd 462, (E)-(2-{2-[2-(4-trifluoromethyl-phenyl)-vinyl]-1H-benzimidazol-5-yl}-phenyl)-carbamic acid methyl ester] are 0.097 µM and 98%.
The like results for `Oc1ccccc1-c1cc2nc(/C=C/c3ccc(C(F)(F)F)cc3)[nH]c2cc1F` [Cpd 59, (E)-2-{6-fluoro-2-[2-(4-trifluoromethyl-phenyl)-vinyl]-1H-benzimidazol-5-yl}-phenol] were, in that order, 0.44 µM and 80%.
Regarding `NS(=O)(=O)c1ccccc1-c1ccc2[nH]c(/C=C/c3cc(Br)ccc3F)nc2c1` [Cpd 379, (E)-2-{2-[2-(5-bromo-2-fluoro-phenyl)-vinyl]-1H-benzimidazol-5-yl}-benzenesulfonamide], the IC50 turned out to be 0.04 µM and the inhibition at 1 µM stood at 99%.
On the same counts, the results for `CC(C)(O)c1ccccc1-c1ccc2[nH]c(C#Cc3cccc(C(F)(F)F)c3)nc2c1` [Cpd 294, 2-{2-[2-(3-trifluoromethyl-phenylethynyl)-1H-benzimidazol-5-yl]-phenyl}-propan-2-ol] are 0.0091 µM and 101%.
The like results for `NS(=O)(=O)c1ccccc1-c1ccc2[nH]c(CCc3ccccc3Cl)nc2c1` [Cpd 402, 2-{2-[2-(2-chloro-phenyl)-ethyl]-1H-benzimidazol-5-yl}-benzenesulfonamide] were, in that order, 0.038 µM and 93%.
The like results for `CCOC(=O)c1ccccc1-c1ccc2[nH]c(/C=C/c3ccc(C(F)(F)F)cc3)nc2c1` [Cpd 466, (E)-2-{2-[2-(4-trifluoromethyl-phenyl)-vinyl]-1H-benzimidazol-5-yl}-benzoic acid ethyl ester] were, in that order, 0.071 µM and 98%.
As for `CC(C)(C)OC(=O)Nc1ccccc1-c1ccc2[nH]c(/C=C/c3ccc(C(C)(C)C)cc3)nc2c1` [Cpd 10, (E)-(2-{2-[2-(4-tert-butyl-phenyl)-vinyl]-1H-benzimidazol-5-yl}-phenyl)-carbamic acid tert-butyl ester], the half-maximal inhibitory concentration (IC50) came out at 0.28 µM and the inhibition at 1 µM was 94%.
Consider `COc1ccc(C2CC2c2nc3cc(-c4ccccc4C(C)(C)O)ccc3[nH]2)cc1` (stereo not drawn) [Cpd 494, 2-(2-{2-[2-(4-methoxy-phenyl)-cyclopropyl]-1H-benzimidazol-5-yl}-phenyl)-propan-2-ol], for which the half-inhibitory concentration (IC50) was found to be 0.052 µM and the inhibition at 1 µM stood at 93%.
The like results for `NC(=O)c1ccccc1-c1ccc2[nH]c(/C=C/c3ccc(S(=O)(=O)C(F)(F)F)cc3)nc2c1` [Cpd 44, (E)-2-{2-[2-(4-trifluoromethanesulfonyl-phenyl)-vinyl]-1H-benzimidazol-5-yl}-benzamide] were, in that order, 0.3 µM and 95%.
On to `CC(=O)c1ccccc1-c1cc2nc(/C=C/c3ccc(C(F)(F)F)cc3)[nH]c2cc1Cl` [Cpd 67, (E)-1-(2-{6-chloro-2-[2-(4-trifluoromethyl-phenyl)-vinyl]-1H-benzimidazol-5-yl}-phenyl)-ethanone], for which the IC50 is 0.13 µM and the inhibition at 1 µM worked out at 98%.
`NS(=O)(=O)c1ccccc1-c1ccc2[nH]c(/C=C/c3ccc(F)c(F)c3F)nc2c1` [Cpd 370, (E)-2-{2-[2-(2,3,4-trifluoro-phenyl)-vinyl]-1H-benzimidazol-5-yl}-benzenesulfonamide]: the half-inhibitory concentration (IC50) came out at 0.013 µM and the inhibition at 1 µM amounted to 98%.
On to `NS(=O)(=O)c1ccccc1-c1ccc2[nH]c(/C=C/c3cccc(F)c3F)nc2c1` [Cpd 359, (E)-2-{2-[2-(2,3-difluoro-phenyl)-vinyl]-1H-benzimidazol-5-yl}-benzenesulfonamide], for which the IC50 amounted to 0.024 µM and the inhibition at 1 µM worked out at 98%.
Turning to `CNS(=O)(=O)c1ccccc1-c1ccc2[nH]c(/C=C/c3ccccc3C(F)(F)F)nc2c1` [Cpd 343, (E)-N-methyl-2-{2-[2-(2-trifluoromethyl-phenyl)-vinyl]-1H-benzimidazol-5-yl}-benzenesulfonamide], the IC50 is 0.243 µM and the inhibition at 1 µM is 82%.
For `CNS(=O)(=O)c1ccccc1-c1ccc2[nH]c(/C=C/c3cc(F)c(F)cc3F)nc2c1` [Cpd 324, (E)-N-methyl-2-{2-[2-(2,4,5-trifluoro-phenyl)-vinyl]-1H-benzimidazol-5-yl}-benzenesulfonamide], the IC50 is 0.033 µM and the inhibition at 1 µM was determined as 98%.
`CSc1ccccc1-c1ccc2[nH]c(/C=C/c3ccc(C(F)(F)F)cc3)nc2c1` [Cpd 480, (E)-5-(2-methylsulfanyl-phenyl)-2-[2-(4-trifluoromethyl-phenyl)-vinyl]-1H-benzimidazole]: the IC50 was more than 0.5 µM.
Turning to `FC(F)(F)Oc1ccccc1-c1ccc2[nH]c(/C=C/c3ccc(C(F)(F)F)cc3)nc2c1` [Cpd 488, (E)-5-(2-trifluoromethoxy-phenyl)-2-[2-(4-trifluoromethyl-phenyl)-vinyl]-1H-benzimidazole], the inhibition at 1 µM amounted to 4%.
Turning to `NS(=O)(=O)c1ccccc1-c1ccc2[nH]c(CCc3cc(F)ccc3F)nc2c1` [Cpd 395, 2-{2-[2-(2,5-difluoro-phenyl)-ethyl]-1H-benzimidazol-5-yl}-benzenesulfonamide], the IC50 is 0.015 µM and the inhibition at 1 µM came out at 99%.
On to `CS(=O)(=O)Nc1ccccc1-c1ccc2[nH]c(/C=C/c3ccc(Br)cc3)nc2c1` [Cpd 406, (E)-N-(2-{2-[2-(4-bromo-phenyl)-vinyl]-1H-benzimidazol-5-yl}-phenyl)-methanesulfonamide], for which the 50% inhibitory concentration (IC50) amounted to 0.17 µM and the inhibition at 1 µM was found to be 97%.
On the same counts, the results for `NS(=O)(=O)c1ccccc1-c1ccc2[nH]c(C#Cc3cccc(C(F)(F)F)c3)nc2c1` [Cpd 295, 2-[2-(3-trifluoromethyl-phenylethynyl)-1H-benzimidazol-5-yl]-benzenesulfonamide] are 0.016 µM and 100%.
On the same counts, the results for `CC(=O)Nc1ccccc1-c1ccc2[nH]c(/C=C/c3ccc(S(=O)(=O)C(F)(F)F)cc3)nc2c1` [Cpd 43, (E)-N-(2-{2-[2-(4-trifluoromethanesulfonyl-phenyl)-vinyl]-1H-benzimidazol-5-yl}-phenyl)-acetamide] are 0.89 µM and 58%.
